Source: patent publication US10829520B2, “Beta-hairpin peptidomimetics” (POLYPHOR AG, priority 2015, dated 2020)
Where a SMILES comes first, the peptide text is derived from it. Bridges are numbered along the chain shown (N, C = ends). [ ]: non-standard residue; d: D form. Tle = CC(C)(C)[C@H](N)C(=O)O; dNle = CCCC[C@@H](N)C(=O)O; dDab = NCC[C@@H](N)C(=O)O; Nle = CCCC[C@H](N)C(=O)O; Orn = NCCC[C@H](N)C(=O)O; Dab = NCC[C@H](N)C(=O)O

What was measured:
Assay type in all cases: cell-based
[1] = system: Acinetobacter baumannii DSM 30008; conditions: DSM 30008
Outline: (§1)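 CLSI broth microdilution; MH-II (cation-adjusted) + 0.002% P-80; ~10^6 CFU/mL inoculum; peptide two-fold serial dilutions; 18-20 h, 35° C; MIC = no visible growth, μg/mL.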

[2] = system: Klebsiella pneumoniae 968733; conditions: 968733
[3] = system: Acinetobacter baumannii 872842; conditions: 872842
[4] = system: Pseudomonas aeruginosa ATCC 27853; conditions: ATCC 27853
Outline: as §1

[5] = system: Escherichia coli 926415; conditions: 926415
[6] = system: Escherichia coli ATCC 25922; conditions: ATCC 25922
Outline: as §1

[7] = system: Klebsiella pneumoniae SSI #3010; conditions: SSI #3010
Outline: as §1

[8] = system: human red blood cells (hRBC); experiment: Hemolysis of human red blood cells; conditions: red cells of human, 1 h
Outline: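 hRBC washed 3× PBS; 20% v/v, ~0.9×10^9 cells/mL final. Peptide 100 μg/mL, 1 h, 37° C., 300 rpm. Spin, supernatant diluted 8×, OD540. 0% = PBS + 0.001% acetic acid; 100% = 2.5% Triton X-100. % hemolysis = OD540 peptide/OD540 full lysis × 100.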

SMILES	Acinetobacter baumannii DSM 30008 MIC [1] [µg/mL]	Klebsiella pneumoniae 968733 MIC [2] [µg/mL]	Acinetobacter baumannii 872842 MIC [3] [µg/mL]	Pseudomonas aeruginosa ATCC 27853 MIC [4] [µg/mL]	Escherichia coli 926415 MIC [5] [µg/mL]	Escherichia coli ATCC 25922 MIC [6] [µg/mL]	Klebsiella pneumoniae SSI #3010 MIC [7] [µg/mL]	Hemolysis at 100 μg/mL [8]; 100 [%]	Hemolysis at 100 μg/mL ([8]; 100 μg/mL) [%]
CCCC[C@@H]1NC(=O)[C@@H]2CCCN2C(=O)[C@H]2CCCN2C(=O)[C@H](CO)NC(=O)[C@H](C)NC(=O)[C@H](C(C)(C)C)NC(=O)[C@H](CCN)NC(=O)[C@H](Cc2c[nH]c3ccccc23)NC(=O)[C@@H](N)CCC(=O)NCC[C@@H](C(=O)N[C@H](CCN)C(=O)N[C@H]2CCNC(=O)[C@H]([C@@H](C)O)NC(=O)[C@H](CCN)NC(=O)[C@H](CCN)NC(=O)[C@H](CC(C)C)NC(=O)[C@@H](Cc3ccccc3)NC(=O)[C@H](CCN)NC2=O)NC(=O)[C@H](CCCN)NC(=O)[C@H](CCN)NC(=O)[C@H](Cc2ccc(O)cc2)NC(=O)[C@H](CO)NC1=O [Ex. 198] (H-EW[Dab][Tle]AS[dP]P[Nle]SY[Dab][Orn][Dab][dDab][Dab][Dab][dF]L[Dab][Dab]T; lactam 1-14, 16-C)	0.25	1	1	0.5	0.5	0.0625	0.125	1	–
CCCC[C@@H]1NC(=O)[C@@H]2CCCN2C(=O)[C@H]2CCCN2C(=O)[C@H](CO)NC(=O)[C@H](CO)NC(=O)[C@H](C(C)(C)C)NC(=O)[C@H](CCN)NC(=O)[C@H](Cc2c[nH]c3ccccc23)NC(=O)[C@@H](N)CSSC[C@@H](C(=O)N[C@@H](C)C(=O)N[C@H](CCN)C(=O)N[C@H]2CCNC(=O)[C@H]([C@@H](C)O)NC(=O)[C@H](CCN)NC(=O)[C@H](CCN)NC(=O)[C@H](CC(C)C)NC(=O)[C@@H](Cc3ccccc3)NC(=O)[C@H](CCN)NC2=O)NC(=O)[C@H](CCCN)NC(=O)[C@H](CCN)NC(=O)[C@H](Cc2ccc(O)cc2)NC(=O)[C@H](CO)NC1=O [Ex. 199] (H-CW[Dab][Tle]SS[dP]P[Nle]SY[Dab][Orn]CA[dDab][Dab][Dab][dF]L[Dab][Dab]T; disulfide 1-14; lactam 17-C)	2	4	0.5	2	0.5	0.25	0.5	–	<1
CCCC[C@@H]1NC(=O)[C@@H]2CCCN2C(=O)[C@H]2CCCN2C(=O)[C@H](CO)NC(=O)[C@H](CO)NC(=O)[C@H](C(C)(C)C)NC(=O)[C@H](CCN)NC(=O)[C@H](Cc2c[nH]c3ccccc23)NC(=O)[C@@H](N)CSSC[C@@H](C(=O)N[C@H](CCCC)C(=O)N[C@H](CCN)C(=O)N[C@H]2CCNC(=O)[C@H]([C@@H](C)O)NC(=O)[C@H](CCN)NC(=O)[C@H](CCN)NC(=O)[C@H](CC(C)C)NC(=O)[C@@H](Cc3ccccc3)NC(=O)[C@H](CCN)NC2=O)NC(=O)[C@H](CCCN)NC(=O)[C@H](CCN)NC(=O)[C@H](Cc2ccc(O)cc2)NC(=O)[C@H](CO)NC1=O [Ex. 200] (H-CW[Dab][Tle]SS[dP]P[Nle]SY[Dab][Orn]C[dNle][dDab][Dab][Dab][dF]L[Dab][Dab]T; disulfide 1-14; lactam 17-C)	0.5	1	1	2	0.5	0.125	0.25	–	<1
CCCC[C@@H]1NC(=O)[C@@H]2CCCN2C(=O)[C@H]2CCCN2C(=O)[C@H](CO)NC(=O)[C@H](CO)NC(=O)[C@H](C(C)(C)C)NC(=O)[C@H](CCN)NC(=O)[C@H](Cc2c[nH]c3ccccc23)NC(=O)[C@@H](N)CSSC[C@@H](C(=O)N[C@@H](Cc2ccc(O)cc2)C(=O)N[C@H](CCN)C(=O)N[C@H]2CCNC(=O)[C@H]([C@@H](C)O)NC(=O)[C@H](CCN)NC(=O)[C@H](CCN)NC(=O)[C@H](CC(C)C)NC(=O)[C@@H](Cc3ccccc3)NC(=O)[C@H](CCN)NC2=O)NC(=O)[C@H](CCCN)NC(=O)[C@H](CCN)NC(=O)[C@H](Cc2ccc(O)cc2)NC(=O)[C@H](CO)NC1=O [Ex. 201] (H-CW[Dab][Tle]SS[dP]P[Nle]SY[Dab][Orn]CY[dDab][Dab][Dab][dF]L[Dab][Dab]T; disulfide 1-14; lactam 17-C)	1	8	0.5	1	0.5	0.25	1	–	<1
CCCC[C@@H]1NC(=O)[C@@H]2CCCN2C(=O)[C@H]2CCCN2C(=O)[C@H](CO)NC(=O)[C@H](CO)NC(=O)[C@H](C(C)(C)C)NC(=O)[C@H](CCN)NC(=O)[C@H](Cc2c[nH]c3ccccc23)NC(=O)[C@@H](N)CSSC[C@@H](C(=O)N[C@H](Cc2c[nH]c3ccccc23)C(=O)N[C@@H](CCN)C(=O)N[C@H]2CCNC(=O)[C@H]([C@@H](C)O)NC(=O)[C@H](CCN)NC(=O)[C@H](CCN)NC(=O)[C@H](CC(C)C)NC(=O)[C@@H](Cc3ccccc3)NC(=O)[C@H](CCN)NC2=O)NC(=O)[C@H](CCCN)NC(=O)[C@H](CCN)NC(=O)[C@H](Cc2ccc(O)cc2)NC(=O)[C@H](CO)NC1=O [Ex. 202] (H-CW[Dab][Tle]SS[dP]P[Nle]SY[Dab][Orn]C[dW][Dab][Dab][Dab][dF]L[Dab][Dab]T; disulfide 1-14; lactam 17-C)	1	2	0.5	1	0.5	0.25	1	–	2
CCCC[C@@H]1NC(=O)[C@@H]2CCCN2C(=O)[C@H]2CCCN2C(=O)[C@H](CO)NC(=O)[C@H](CO)NC(=O)[C@H](C(C)(C)C)NC(=O)[C@H](CCN)NC(=O)[C@H](Cc2c[nH]c3ccccc23)NC(=O)[C@@H](N)CSSC[C@@H](C(=O)N[C@@H](CCC(N)=O)C(=O)N[C@H](CCN)C(=O)N[C@H]2CCNC(=O)[C@H]([C@@H](C)O)NC(=O)[C@H](CCN)NC(=O)[C@H](CCN)NC(=O)[C@H](CC(C)C)NC(=O)[C@@H](Cc3ccccc3)NC(=O)[C@H](CCN)NC2=O)NC(=O)[C@H](CCCN)NC(=O)[C@H](CCN)NC(=O)[C@H](Cc2ccc(O)cc2)NC(=O)[C@H](CO)NC1=O [Ex. 203] (H-CW[Dab][Tle]SS[dP]P[Nle]SY[Dab][Orn]CQ[dDab][Dab][Dab][dF]L[Dab][Dab]T; disulfide 1-14; lactam 17-C)	2	4	0.5	1	0.25	0.5	1	–	<1
CCCC[C@@H]1NC(=O)[C@@H]2CCCN2C(=O)[C@H]2CCCN2C(=O)[C@H](CO)NC(=O)[C@H](CO)NC(=O)[C@H](C(C)(C)C)NC(=O)[C@H](CCN)NC(=O)[C@H](Cc2c[nH]c3ccccc23)NC(=O)[C@@H](N)CSSC[C@@H](C(=O)N[C@@H](C(=O)N[C@H](CCN)C(=O)N[C@H]2CCNC(=O)[C@H]([C@@H](C)O)NC(=O)[C@H](CCN)NC(=O)[C@H](CCN)NC(=O)[C@H](CC(C)C)NC(=O)[C@@H](Cc3ccccc3)NC(=O)[C@H](CCN)NC2=O)[C@H](C)O)NC(=O)[C@H](CCCN)NC(=O)[C@H](CCN)NC(=O)[C@H](Cc2ccc(O)cc2)NC(=O)[C@H](CO)NC1=O [Ex. 204] (H-CW[Dab][Tle]SS[dP]P[Nle]SY[Dab][Orn]C[dT][dDab][Dab][Dab][dF]L[Dab][Dab]T; disulfide 1-14; lactam 17-C)	0.5	0.5	0.25	0.5	0.125	0.25	0.25	–	3
